Source: PMC4335062, “Data-Driven Prediction and Design of bZIP Coiled-Coil Interactions” (PLoS Computational Biology, 2015)
Where two headings read alike, the source gives them in different places. Each block holds one sequence with its values, some of them ahead of it. Where no end group is shown, it is not given here.

Key:
Test in all cases: Direct-binding FRET assay
BATF3 = biological target: T1, BATF3 (Homo sapiens, UniProt Q9NR55); conditions: mean or single, read-out: Kd
T1 construct: made in house
T1 sequence (Q9NR55 35-98 limits assumed): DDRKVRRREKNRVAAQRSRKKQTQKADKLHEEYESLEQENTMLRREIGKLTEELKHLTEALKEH
Protocol: (§1) The direct binding assay was performed manually in 384-well plates and is similar to a previously described assay. Wells were filled with 20 μL of 1 mM TCEP-HCl. A 4 μM stock of acceptor protein was made fresh in 1 mM TCEP-HCl, and 20 μL was titrated in 2-fold dilutions over the wells. […] The direct-binding FRET data were fit as previously described. Briefly, the Kd of the designed peptide homodimer was experimentally determined and used with previously determined target homodimer Kd values to determine the heterodimer Kd. The homodimer Kd values used for the human bZIPs were from; experiments done by […] et al. used the same protein constructs for the human bZIP proteins, the same buffer conditions, and the same assay. The fitting used a system of ordinary differential equations to describe the concentrations of homo and heterodimers formed by the donor (D) and acceptor (A) as a function of the heterodimer Kd. MATLAB was used to simulate the binding experiment for different Kd values, and the value that gave the best agreement between simulation and experiment was assigned. A minimum 15% change in the donor fluorescence upon titrating the acceptor peptide from 0 to 1000 nM was required for a fit to be attempted. If this minimum was not met, the interaction was classified as “NS” for no signal change. […] These interactions were marked “AS” to indicate anomalous signal. We attributed this to interactions between the peptides, the dyes and the walls of the assay plates at low concentrations. These curves could not be fit, given their unusual shapes at low concentrations of acceptor. For such curves, we removed the first five points and re-fit the data. […] One example of this is increasing concentrations of acceptor causing an increase in donor fluorescence.

ATF2 = biological target: T2, ATF2 (Homo sapiens, UniProt P15336); conditions: read-out: Kd
T2 construct: made in house
T2 sequence (P15336 352-415 limits assumed): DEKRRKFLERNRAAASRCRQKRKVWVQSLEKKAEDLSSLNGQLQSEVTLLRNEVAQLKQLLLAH
Protocol: as §1

CREB3 = biological target: T3, CREB3 (Homo sapiens, UniProt O43889); conditions: mean or single, read-out: Kd
T3 construct: made in house
T3 sequence (O43889 150-213 limits assumed): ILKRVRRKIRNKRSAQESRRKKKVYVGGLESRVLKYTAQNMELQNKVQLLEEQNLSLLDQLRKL
Protocol: as §1

DBP = biological target: T4, DBP (Homo sapiens, UniProt Q10586); conditions: read-out: Kd
T4 construct: made in house
T4 sequence (Q10586 255-318 limits assumed): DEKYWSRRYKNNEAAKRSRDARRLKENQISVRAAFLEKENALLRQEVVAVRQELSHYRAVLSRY
Protocol: as §1

ATF5 = biological target: T5, ATF5 (Homo sapiens, UniProt Q9Y2D1); conditions: read-out: Kd
T5 construct: made in house
T5 sequence (Q9Y2D1 208-271 limits assumed): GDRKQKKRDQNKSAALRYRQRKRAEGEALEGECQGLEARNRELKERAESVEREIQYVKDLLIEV
Protocol: as §1

BATF2 = biological target: T6, BATF2 (Homo sapiens, UniProt Q8N1L9); conditions: mean or single, read-out: Kd
T6 construct: made in house
T6 sequence (Q8N1L9 17-80 limits assumed): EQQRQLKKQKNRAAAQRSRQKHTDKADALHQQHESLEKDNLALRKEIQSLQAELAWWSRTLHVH
Protocol: as §1

NFIL3 = biological target: T7, NFIL3 (Homo sapiens, UniProt Q16649); conditions: read-out: Kd
T7 construct: made in house
T7 sequence (Q16649 73-136 limits assumed): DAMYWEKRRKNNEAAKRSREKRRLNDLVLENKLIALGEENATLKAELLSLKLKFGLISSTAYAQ
Protocol: as §1

CREBZF = biological target: T8, CREBZF (Homo sapiens, UniProt Q9NS37); conditions: read-out: Kd
T8 construct: made in house
T8 sequence (Q9NS37 204-267 limits assumed): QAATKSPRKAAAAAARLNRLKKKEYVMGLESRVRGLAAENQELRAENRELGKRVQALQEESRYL
Protocol: as §1

FOSL1 = biological target: T9, FOSL1 (Homo sapiens, UniProt P15407); conditions: mean or single, read-out: Kd
T9 construct: made in house
T9 sequence (P15407 105-168 limits assumed): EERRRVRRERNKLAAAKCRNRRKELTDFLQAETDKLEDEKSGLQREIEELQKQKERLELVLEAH
Protocol: as §1

HLF = biological target: T10, HLF (Homo sapiens, UniProt Q16534); conditions: read-out: Kd
T10 construct: made in house
T10 sequence (Q16534 225-288 limits assumed): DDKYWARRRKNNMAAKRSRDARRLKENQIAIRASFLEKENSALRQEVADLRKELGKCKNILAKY
Protocol: as §1

[1] = 4°C, C-terminal rhodamine design
[2] = 4°C, N-terminal rhodamine design
[3] = 23°C, C-terminal rhodamine design
[4] = 23°C, N-terminal rhodamine design
[5] = 37°C, C-terminal rhodamine design
[6] = 37°C, N-terminal rhodamine design
[7] = 4°C, C-terminal rhodamine design, mean or single
[8] = 23°C, C-terminal rhodamine design, mean or single
[9] = 23°C, N-terminal rhodamine design, mean or single
[10] = 37°C, C-terminal rhodamine design, mean or single
[11] = 37°C, N-terminal rhodamine design, mean or single
[12] = 4°C, N-terminal rhodamine design, mean or single
[13] = 4°C, C-terminal fluorescein design as donor, TAMRA target titrated
[14] = 23°C, C-terminal fluorescein design as donor, TAMRA target titrated
[15] = 37°C, C-terminal fluorescein design as donor, TAMRA target titrated

Kd (BATF3; [1]): 192 nM
Kd (BATF3; [2]): 52.8 nM
Kd (BATF3; [3]): 791 nM
Kd (BATF3; [4]): 315 nM
Kd (BATF3; [5]): > 5000 nM
Kd (BATF3; [6]): > 5000 nM
Kd (ATF2; [7]): > 5000 nM
Kd (ATF2; [8]): > 5000 nM
Kd (ATF2; [9]): > 1000 nM
Kd (ATF2; [10]): > 5000 nM
Kd (ATF2; [11]): > 1000 nM
Kd (CREB3; [1]): 147 nM
Kd (CREB3; [2]): > 1000 nM
Kd (CREB3; [3]): > 5000 nM
Kd (CREB3; [4]): > 1000 nM
Kd (CREB3; [5]): 200 to 1000 nM
Kd (CREB3; [6]): > 1000 nM
Kd (DBP; [7]): > 1000 nM
Kd (DBP; [12]): > 5000 nM
Kd (DBP; [8]): > 1000 nM
Kd (DBP; [9]): > 1000 nM
Kd (DBP; [10]): > 1000 nM
Kd (DBP; [11]): > 1000 nM
Kd (ATF5; [7]): 1.1 nM
Kd (ATF5; 4°C, N-terminal rhodamine design, repeat 3): 200 to 1000 nM
Kd (ATF5; [10]): 1680 nM
Kd (ATF5; 37°C, N-terminal rhodamine design, repeat 1): > 1000 nM
Kd (ATF5; 37°C, N-terminal rhodamine design, repeat 2): > 1000 nM
Kd (ATF5; 37°C, N-terminal rhodamine design, repeat 3): > 5000 nM
Kd (BATF2; [1]): 591 nM
Kd (BATF2; [2]): 76 nM
Kd (BATF2; [3]): > 5000 nM
Kd (BATF2; [4]): 509 nM
Kd (BATF2; [5]): > 1000 nM
Kd (BATF2; [6]): > 5000 nM
Kd (NFIL3; [7]): > 1000 nM
Kd (NFIL3; [12]): > 1000 nM
Kd (NFIL3; [8]): > 1000 nM
Kd (NFIL3; [9]): > 1000 nM
Kd (NFIL3; [10]): > 1000 nM
Kd (NFIL3; [11]): > 1000 nM
Kd (CREBZF; [7]): 409 nM
Kd (CREBZF; [12]): 375 nM
Kd (CREBZF; [8]): > 5000 nM
Kd (CREBZF; [9]): > 5000 nM
Kd (CREBZF; [10]): > 1000 nM
Kd (FOSL1; [1]): 84.1 nM
Kd (FOSL1; [2]): 271 nM
Kd (FOSL1; [3]): 695 nM
Kd (FOSL1; [4]): > 5000 nM
Kd (FOSL1; [5]): > 1000 nM
Kd (HLF; [7]): > 5000 nM
Kd (HLF; [12]): > 5000 nM
Kd (HLF; [8]): > 5000 nM
Kd (HLF; [9]): > 1000 nM
Kd (HLF; [10]): > 5000 nM
Kd (HLF; [11]): > 1000 nM
Sequence: KRIAYLRQRIAELRNENHVLESRIQRMEKEKDALQQDRDHLEYEL [ATF5-d1]

Kd (BATF3; [1]): > 5000 nM
Kd (BATF3; [2]): > 1000 nM
Kd (BATF3; [3]): > 1000 nM
Kd (BATF3; [4]): > 1000 nM
Kd (BATF3; [5]): > 1000 nM
Kd (BATF3; [6]): > 1000 nM
Kd (ATF2; [13]): > 1000 nM
Kd (ATF2; [7]): > 1000 nM
Kd (ATF2; [12]): > 1000 nM
Kd (ATF2; [14]): > 1000 nM
Kd (ATF2; [8]): > 1000 nM
Kd (ATF2; [9]): > 1000 nM
Kd (ATF2; [15]): > 1000 nM
Kd (ATF2; [10]): > 1000 nM
Kd (ATF2; [11]): > 1000 nM
Kd (CREB3; [1]): > 1000 nM
Kd (CREB3; [2]): > 1000 nM
Kd (CREB3; [3]): > 1000 nM
Kd (CREB3; [4]): > 1000 nM
Kd (CREB3; [5]): > 1000 nM
Kd (CREB3; [6]): > 1000 nM
Kd (DBP; [13]): > 1000 nM
Kd (DBP; [7]): > 1000 nM
Kd (DBP; [12]): > 1000 nM
Kd (DBP; [14]): > 1000 nM
Kd (DBP; [8]): > 1000 nM
Kd (DBP; [9]): > 1000 nM
Kd (DBP; [15]): > 1000 nM
Kd (DBP; [10]): > 1000 nM
Kd (DBP; [11]): > 1000 nM
Kd (ATF5; [7]): > 1000 nM
Kd (ATF5; [12]): > 1000 nM
Kd (ATF5; [8]): > 1000 nM
Kd (ATF5; [9]): > 1000 nM
Kd (ATF5; [10]): > 1000 nM
Kd (ATF5; [11]): > 1000 nM
Kd (BATF2; [1]): < 200 nM
Kd (BATF2; [2]): > 1000 nM
Kd (BATF2; [3]): > 1000 nM
Kd (BATF2; [4]): > 1000 nM
Kd (BATF2; [5]): > 1000 nM
Kd (BATF2; [6]): > 1000 nM
Kd (NFIL3; [13]): > 1000 nM
Kd (NFIL3; [7]): > 1000 nM
Kd (NFIL3; [12]): > 1000 nM
Kd (NFIL3; [14]): > 1000 nM
Kd (NFIL3; [8]): > 1000 nM
Kd (NFIL3; [9]): > 1000 nM
Kd (NFIL3; [15]): > 1000 nM
Kd (NFIL3; [10]): > 1000 nM
Kd (NFIL3; [11]): > 1000 nM
Kd (CREBZF; [13]): > 1000 nM
Kd (CREBZF; [12]): > 1000 nM
Kd (CREBZF; [14]): > 1000 nM
Kd (CREBZF; [9]): > 1000 nM
Kd (CREBZF; [15]): > 1000 nM
Kd (CREBZF; [10]): > 1000 nM
Kd (CREBZF; 37°C, C-terminal rhodamine design, repeat 1): > 1000 nM
Kd (CREBZF; 37°C, C-terminal rhodamine design, repeat 2): > 1000 nM
Kd (CREBZF; 37°C, C-terminal rhodamine design, repeat 3): > 1000 nM
Kd (CREBZF; [11]): > 1000 nM
Kd (FOSL1; [1]): > 1000 nM
Kd (FOSL1; [2]): > 1000 nM
Kd (FOSL1; [3]): > 1000 nM
Kd (FOSL1; [4]): > 1000 nM
Kd (FOSL1; [5]): > 1000 nM
Kd (FOSL1; [6]): > 1000 nM
Kd (HLF; [13]): > 1000 nM
Kd (HLF; [7]): > 1000 nM
Kd (HLF; [12]): > 1000 nM
Kd (HLF; [14]): > 1000 nM
Kd (HLF; [8]): > 1000 nM
Kd (HLF; [9]): > 1000 nM
Kd (HLF; [15]): > 1000 nM
Kd (HLF; [10]): > 1000 nM
Kd (HLF; [11]): > 1000 nM
Sequence: EREAQLENRVAHLKEKNQELKAQNLHLKEALSEAQNRNQELKNDA [XBP1-d1]
